Laboratory results: ChEMBL document CHEMBL1909046, “DrugMatrix in vitro pharmacology data”

target: T1, Alpha-1A adrenergic receptor (Rattus norvegicus, UniProt P43140); experiment: DRUGMATRIX: Alpha-1A adrenergic receptor radioligand binding (ligand: prazosin); format: cell membranes, Wistar, Submaxillary gland, Membrane; settings: Not Active = under 50% inhibition at 10 µM
T1 sequence (P43140 whole entry): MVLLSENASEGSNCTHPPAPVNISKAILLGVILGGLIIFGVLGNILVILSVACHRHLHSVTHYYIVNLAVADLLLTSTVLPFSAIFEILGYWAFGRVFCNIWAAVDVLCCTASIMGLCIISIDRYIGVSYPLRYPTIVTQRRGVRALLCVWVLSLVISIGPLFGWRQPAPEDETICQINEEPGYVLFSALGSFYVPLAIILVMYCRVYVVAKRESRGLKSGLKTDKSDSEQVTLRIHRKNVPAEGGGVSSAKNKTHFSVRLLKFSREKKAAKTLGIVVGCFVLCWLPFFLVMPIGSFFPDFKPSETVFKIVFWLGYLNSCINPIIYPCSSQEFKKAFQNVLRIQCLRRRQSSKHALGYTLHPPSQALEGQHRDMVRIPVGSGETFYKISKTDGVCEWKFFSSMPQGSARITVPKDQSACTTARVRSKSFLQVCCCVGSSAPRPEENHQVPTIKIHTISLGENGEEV

Compound | IC50
CC1(C)O[C@@H]2C[C@H]3[C@@H]4C[C@H](F)C5=CC(=O)C=C[C@]5(C)[C@@]4(F)[C@@H](O)C[C@]3(C)[C@]2(C(=O)CO)O1 [FLUOCINOLONE ACETONIDE] | Not Active
CC1(C)O[C@@H]2C[C@H]3[C@@H]4C[C@H](F)C5=CC(=O)CC[C@]5(C)[C@H]4[C@@H](O)C[C@]3(C)[C@]2(C(=O)CO)O1 [FLURANDRENOLIDE] | Not Active
Cc1ccc(S(=O)(=O)NC(=O)NN2CC3CCCC3C2)cc1 (configuration not stated) [GLICLAZIDE] | Not Active
CC(C)Cc1ccc(C(C)C(=O)O)cc1 (configuration not stated) [IBUPROFEN] | Not Active
COc1ccc2c(c1)c(CC(=O)O)c(C)n2C(=O)c1ccc(Cl)cc1 [INDOMETHACIN] | Not Active
CCc1c2c(nc3ccc(OC(=O)N4CCC(N5CCCCC5)CC4)cc13)-c1cc3c(c(=O)n1C2)COC(=O)[C@]3(O)CC [IRINOTECAN] | Not Active
CC(C(=O)O)c1cccc(C(=O)c2ccccc2)c1 (configuration not stated) [KETOPROFEN] | Not Active

test system: not listed separately; experiment: DRUGMATRIX: Sigma2 radioligand binding (ligand: [3H] Ifenprodil); format: cell membranes, Rattus norvegicus, Wistar, Brain, Membrane; settings: Not Active = under 50% inhibition at 10 µM

Compound | IC50 | Ki
CC1(C)O[C@@H]2C[C@H]3[C@@H]4C[C@H](F)C5=CC(=O)C=C[C@]5(C)[C@@]4(F)[C@@H](O)C[C@]3(C)[C@]2(C(=O)CO)O1 [FLUOCINOLONE ACETONIDE] | Not Active | Not Active
CC1(C)O[C@@H]2C[C@H]3[C@@H]4C[C@H](F)C5=CC(=O)CC[C@]5(C)[C@H]4[C@@H](O)C[C@]3(C)[C@]2(C(=O)CO)O1 [FLURANDRENOLIDE] | Not Active | Not Active
Cc1ccc(S(=O)(=O)NC(=O)NN2CC3CCCC3C2)cc1 (configuration not stated) [GLICLAZIDE] | Not Active | Not Active
CC(C)Cc1ccc(C(C)C(=O)O)cc1 (configuration not stated) [IBUPROFEN] | Not Active | Not Active
COc1ccc2c(c1)c(CC(=O)O)c(C)n2C(=O)c1ccc(Cl)cc1 [INDOMETHACIN] | Not Active | Not Active
CCc1c2c(nc3ccc(OC(=O)N4CCC(N5CCCCC5)CC4)cc13)-c1cc3c(c(=O)n1C2)COC(=O)[C@]3(O)CC [IRINOTECAN] | Not Active | Not Active
CC(C(=O)O)c1cccc(C(=O)c2ccccc2)c1 (configuration not stated) [KETOPROFEN] | Not Active | Not Active

test system: not listed separately; experiment: DRUGMATRIX: Tumor Necrosis Factor (TNF), Non-Selective radioligand binding (ligand: [125I] TNF-alpha); format: cell membranes, Membrane; settings: u-937; Not Active = under 50% inhibition at 10 µM

Compound | IC50 | Ki
CC1(C)O[C@@H]2C[C@H]3[C@@H]4C[C@H](F)C5=CC(=O)C=C[C@]5(C)[C@@]4(F)[C@@H](O)C[C@]3(C)[C@]2(C(=O)CO)O1 [FLUOCINOLONE ACETONIDE] | Not Active | Not Active
CC1(C)O[C@@H]2C[C@H]3[C@@H]4C[C@H](F)C5=CC(=O)CC[C@]5(C)[C@H]4[C@@H](O)C[C@]3(C)[C@]2(C(=O)CO)O1 [FLURANDRENOLIDE] | Not Active | Not Active
Cc1ccc(S(=O)(=O)NC(=O)NN2CC3CCCC3C2)cc1 (configuration not stated) [GLICLAZIDE] | Not Active | Not Active
CC(C)Cc1ccc(C(C)C(=O)O)cc1 (configuration not stated) [IBUPROFEN] | Not Active | Not Active
COc1ccc2c(c1)c(CC(=O)O)c(C)n2C(=O)c1ccc(Cl)cc1 [INDOMETHACIN] | Not Active | Not Active
CCc1c2c(nc3ccc(OC(=O)N4CCC(N5CCCCC5)CC4)cc13)-c1cc3c(c(=O)n1C2)COC(=O)[C@]3(O)CC [IRINOTECAN] | Not Active | Not Active
CC(C(=O)O)c1cccc(C(=O)c2ccccc2)c1 (configuration not stated) [KETOPROFEN] | Not Active | Not Active

target: D(1A) dopamine receptor (Homo sapiens, UniProt P21728); experiment: DRUGMATRIX: Dopamine D1 radioligand binding (ligand: [3H] SCH-23390); format: cell membranes, Membrane; settings: cho; Not Active = under 50% inhibition at 10 µM
Sequence (P21728 whole entry): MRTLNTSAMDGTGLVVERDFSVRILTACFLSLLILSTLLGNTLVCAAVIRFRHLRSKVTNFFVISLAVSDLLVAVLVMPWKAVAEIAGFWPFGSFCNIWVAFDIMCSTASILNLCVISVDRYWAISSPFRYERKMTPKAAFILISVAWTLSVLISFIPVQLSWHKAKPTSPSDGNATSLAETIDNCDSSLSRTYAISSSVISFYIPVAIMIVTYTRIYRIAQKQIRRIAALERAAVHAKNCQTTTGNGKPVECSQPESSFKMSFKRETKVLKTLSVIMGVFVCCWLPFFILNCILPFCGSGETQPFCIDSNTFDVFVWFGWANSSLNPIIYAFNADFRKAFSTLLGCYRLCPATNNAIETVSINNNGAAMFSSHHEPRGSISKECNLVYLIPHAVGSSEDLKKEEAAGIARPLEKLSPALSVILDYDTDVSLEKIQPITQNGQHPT

Compound | IC50
CC1(C)O[C@@H]2C[C@H]3[C@@H]4C[C@H](F)C5=CC(=O)C=C[C@]5(C)[C@@]4(F)[C@@H](O)C[C@]3(C)[C@]2(C(=O)CO)O1 [FLUOCINOLONE ACETONIDE] | Not Active
CC1(C)O[C@@H]2C[C@H]3[C@@H]4C[C@H](F)C5=CC(=O)CC[C@]5(C)[C@H]4[C@@H](O)C[C@]3(C)[C@]2(C(=O)CO)O1 [FLURANDRENOLIDE] | Not Active
Cc1ccc(S(=O)(=O)NC(=O)NN2CC3CCCC3C2)cc1 (configuration not stated) [GLICLAZIDE] | Not Active
CC(C)Cc1ccc(C(C)C(=O)O)cc1 (configuration not stated) [IBUPROFEN] | Not Active
COc1ccc2c(c1)c(CC(=O)O)c(C)n2C(=O)c1ccc(Cl)cc1 [INDOMETHACIN] | Not Active
CCc1c2c(nc3ccc(OC(=O)N4CCC(N5CCCCC5)CC4)cc13)-c1cc3c(c(=O)n1C2)COC(=O)[C@]3(O)CC [IRINOTECAN] | Not Active
CC(C(=O)O)c1cccc(C(=O)c2ccccc2)c1 (configuration not stated) [KETOPROFEN] | Not Active

target: Delta-type opioid receptor (Homo sapiens, UniProt P41143); format: cell membranes, HEK293, Membrane; settings: hek293; note: in other assays of this panel Not Active means under 50% inhibition at 10 µM
Sequence (P41143 whole entry): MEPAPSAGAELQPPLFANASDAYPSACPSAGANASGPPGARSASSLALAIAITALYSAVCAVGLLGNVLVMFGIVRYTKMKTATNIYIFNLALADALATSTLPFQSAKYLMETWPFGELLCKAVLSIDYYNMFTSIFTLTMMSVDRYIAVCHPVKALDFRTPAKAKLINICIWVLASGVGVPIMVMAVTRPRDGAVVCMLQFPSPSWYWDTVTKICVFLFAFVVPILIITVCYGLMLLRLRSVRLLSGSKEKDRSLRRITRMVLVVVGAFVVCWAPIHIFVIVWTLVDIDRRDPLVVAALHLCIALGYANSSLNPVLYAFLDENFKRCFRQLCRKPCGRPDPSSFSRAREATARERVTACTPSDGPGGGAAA

Compound | IC50
CC1(C)O[C@@H]2C[C@H]3[C@@H]4C[C@H](F)C5=CC(=O)C=C[C@]5(C)[C@@]4(F)[C@@H](O)C[C@]3(C)[C@]2(C(=O)CO)O1 [FLUOCINOLONE ACETONIDE] | Not Active
CC1(C)O[C@@H]2C[C@H]3[C@@H]4C[C@H](F)C5=CC(=O)CC[C@]5(C)[C@H]4[C@@H](O)C[C@]3(C)[C@]2(C(=O)CO)O1 [FLURANDRENOLIDE] | Not Active
Cc1ccc(S(=O)(=O)NC(=O)NN2CC3CCCC3C2)cc1 (configuration not stated) [GLICLAZIDE] | Not Active
CC(C)Cc1ccc(C(C)C(=O)O)cc1 (configuration not stated) [IBUPROFEN] | Not Active
COc1ccc2c(c1)c(CC(=O)O)c(C)n2C(=O)c1ccc(Cl)cc1 [INDOMETHACIN] | Not Active
CCc1c2c(nc3ccc(OC(=O)N4CCC(N5CCCCC5)CC4)cc13)-c1cc3c(c(=O)n1C2)COC(=O)[C@]3(O)CC [IRINOTECAN] | Not Active
CC(C(=O)O)c1cccc(C(=O)c2ccccc2)c1 (configuration not stated) [KETOPROFEN] | Not Active

target: cGMP-specific 3',5'-cyclic phosphodiesterase (Homo sapiens, UniProt O76074); experiment: DRUGMATRIX: Phosphodiesterase PDE5 enzyme inhibition (substrate: [3H]cGMP + cGMP); format: tissue-based; settings: platelet; Not Active = under 50% inhibition at 10 µM

Compound | IC50
CC1(C)O[C@@H]2C[C@H]3[C@@H]4C[C@H](F)C5=CC(=O)C=C[C@]5(C)[C@@]4(F)[C@@H](O)C[C@]3(C)[C@]2(C(=O)CO)O1 [FLUOCINOLONE ACETONIDE] | Not Active
CC1(C)O[C@@H]2C[C@H]3[C@@H]4C[C@H](F)C5=CC(=O)CC[C@]5(C)[C@H]4[C@@H](O)C[C@]3(C)[C@]2(C(=O)CO)O1 [FLURANDRENOLIDE] | Not Active
Cc1ccc(S(=O)(=O)NC(=O)NN2CC3CCCC3C2)cc1 (configuration not stated) [GLICLAZIDE] | Not Active
CC(C)Cc1ccc(C(C)C(=O)O)cc1 (configuration not stated) [IBUPROFEN] | Not Active
COc1ccc2c(c1)c(CC(=O)O)c(C)n2C(=O)c1ccc(Cl)cc1 [INDOMETHACIN] | Not Active
CCc1c2c(nc3ccc(OC(=O)N4CCC(N5CCCCC5)CC4)cc13)-c1cc3c(c(=O)n1C2)COC(=O)[C@]3(O)CC [IRINOTECAN] | Not Active
CC(C(=O)O)c1cccc(C(=O)c2ccccc2)c1 (configuration not stated) [KETOPROFEN] | Not Active

target: T2, 5-hydroxytryptamine receptor 1A (Rattus norvegicus, UniProt P19327); format: cell membranes, Membrane; settings: cho-k1; note: in other assays of this panel Not Active means under 50% inhibition at 10 µM
T2 sequence (P19327 whole entry): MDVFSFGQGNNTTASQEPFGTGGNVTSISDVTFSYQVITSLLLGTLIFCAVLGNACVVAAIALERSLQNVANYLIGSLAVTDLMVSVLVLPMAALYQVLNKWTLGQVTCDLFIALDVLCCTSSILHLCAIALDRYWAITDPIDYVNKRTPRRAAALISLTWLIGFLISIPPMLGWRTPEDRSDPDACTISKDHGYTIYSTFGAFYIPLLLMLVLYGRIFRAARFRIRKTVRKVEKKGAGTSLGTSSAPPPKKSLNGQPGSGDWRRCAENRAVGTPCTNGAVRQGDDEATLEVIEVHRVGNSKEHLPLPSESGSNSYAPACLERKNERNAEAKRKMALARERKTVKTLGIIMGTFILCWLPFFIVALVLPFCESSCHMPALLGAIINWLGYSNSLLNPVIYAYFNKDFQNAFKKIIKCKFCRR

Compound | IC50
CC1(C)O[C@@H]2C[C@H]3[C@@H]4C[C@H](F)C5=CC(=O)C=C[C@]5(C)[C@@]4(F)[C@@H](O)C[C@]3(C)[C@]2(C(=O)CO)O1 [FLUOCINOLONE ACETONIDE] | Not Active
CC1(C)O[C@@H]2C[C@H]3[C@@H]4C[C@H](F)C5=CC(=O)CC[C@]5(C)[C@H]4[C@@H](O)C[C@]3(C)[C@]2(C(=O)CO)O1 [FLURANDRENOLIDE] | Not Active
Cc1ccc(S(=O)(=O)NC(=O)NN2CC3CCCC3C2)cc1 (configuration not stated) [GLICLAZIDE] | Not Active
CC(C)Cc1ccc(C(C)C(=O)O)cc1 (configuration not stated) [IBUPROFEN] | Not Active
COc1ccc2c(c1)c(CC(=O)O)c(C)n2C(=O)c1ccc(Cl)cc1 [INDOMETHACIN] | Not Active
CCc1c2c(nc3ccc(OC(=O)N4CCC(N5CCCCC5)CC4)cc13)-c1cc3c(c(=O)n1C2)COC(=O)[C@]3(O)CC [IRINOTECAN] | Not Active
CC(C(=O)O)c1cccc(C(=O)c2ccccc2)c1 (configuration not stated) [KETOPROFEN] | Not Active

target: T3, Cytochrome P450 1A2 (Homo sapiens, UniProt P05177); settings: bti-tn-5b1-4; note: in other assays of this panel Not Active means under 50% inhibition at 10 µM
T3 sequence (P05177 whole entry): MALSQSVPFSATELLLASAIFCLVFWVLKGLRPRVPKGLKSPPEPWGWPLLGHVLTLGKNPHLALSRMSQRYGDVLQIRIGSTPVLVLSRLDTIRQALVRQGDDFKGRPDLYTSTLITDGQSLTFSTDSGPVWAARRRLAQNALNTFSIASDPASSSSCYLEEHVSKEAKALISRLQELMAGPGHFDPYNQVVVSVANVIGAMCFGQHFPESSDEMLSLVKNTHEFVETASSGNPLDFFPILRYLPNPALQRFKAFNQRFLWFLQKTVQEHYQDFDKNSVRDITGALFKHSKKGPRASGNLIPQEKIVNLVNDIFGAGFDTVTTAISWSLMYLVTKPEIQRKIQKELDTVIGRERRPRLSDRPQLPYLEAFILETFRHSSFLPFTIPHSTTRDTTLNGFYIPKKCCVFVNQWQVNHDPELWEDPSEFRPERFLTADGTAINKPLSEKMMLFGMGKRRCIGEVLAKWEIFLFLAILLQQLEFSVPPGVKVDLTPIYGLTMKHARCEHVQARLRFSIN

Compound | IC50 | Ki
CC1(C)O[C@@H]2C[C@H]3[C@@H]4C[C@H](F)C5=CC(=O)C=C[C@]5(C)[C@@]4(F)[C@@H](O)C[C@]3(C)[C@]2(C(=O)CO)O1 [FLUOCINOLONE ACETONIDE] | Not Active | Not Active
CC1(C)O[C@@H]2C[C@H]3[C@@H]4C[C@H](F)C5=CC(=O)CC[C@]5(C)[C@H]4[C@@H](O)C[C@]3(C)[C@]2(C(=O)CO)O1 [FLURANDRENOLIDE] | Not Active | Not Active
Cc1ccc(S(=O)(=O)NC(=O)NN2CC3CCCC3C2)cc1 (configuration not stated) [GLICLAZIDE] | Not Active | Not Active
CC(C)Cc1ccc(C(C)C(=O)O)cc1 (configuration not stated) [IBUPROFEN] | Not Active | Not Active
COc1ccc2c(c1)c(CC(=O)O)c(C)n2C(=O)c1ccc(Cl)cc1 [INDOMETHACIN] | Not Active | Not Active
CCc1c2c(nc3ccc(OC(=O)N4CCC(N5CCCCC5)CC4)cc13)-c1cc3c(c(=O)n1C2)COC(=O)[C@]3(O)CC [IRINOTECAN] | Not Active | Not Active
CC(C(=O)O)c1cccc(C(=O)c2ccccc2)c1 (configuration not stated) [KETOPROFEN] | Not Active | Not Active
